Test results: ChEMBL document CHEMBL1201862, “PubChem BioAssay data set” (2004)
Activity calls are given as the source filed them.

Tests used:
[1] = test system: BJ; test: cytotoxicity toward BJ-TERT fibroblasts, dose response, cell-based, RAS-independent, luminescence (AID 1933); type: functional; settings: Homo sapiens
[2] = target: T1, Heat shock factor protein 1 (Mus musculus, UniProt P38532); test: inhibition of MG132-induced HSE-luciferase signal, confirmation, cell-based, NIH3T3, luminescence, dose retest (AID 2382); type: functional;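 note: NIH3T3 fibroblasts with HSF1-driven luciferase reporter stressed by proteasome inhibitor MG132; luminescence from HSF1-driven luciferase expression after 8 hours of MG132 stress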
T1 sequence (P38532 whole entry): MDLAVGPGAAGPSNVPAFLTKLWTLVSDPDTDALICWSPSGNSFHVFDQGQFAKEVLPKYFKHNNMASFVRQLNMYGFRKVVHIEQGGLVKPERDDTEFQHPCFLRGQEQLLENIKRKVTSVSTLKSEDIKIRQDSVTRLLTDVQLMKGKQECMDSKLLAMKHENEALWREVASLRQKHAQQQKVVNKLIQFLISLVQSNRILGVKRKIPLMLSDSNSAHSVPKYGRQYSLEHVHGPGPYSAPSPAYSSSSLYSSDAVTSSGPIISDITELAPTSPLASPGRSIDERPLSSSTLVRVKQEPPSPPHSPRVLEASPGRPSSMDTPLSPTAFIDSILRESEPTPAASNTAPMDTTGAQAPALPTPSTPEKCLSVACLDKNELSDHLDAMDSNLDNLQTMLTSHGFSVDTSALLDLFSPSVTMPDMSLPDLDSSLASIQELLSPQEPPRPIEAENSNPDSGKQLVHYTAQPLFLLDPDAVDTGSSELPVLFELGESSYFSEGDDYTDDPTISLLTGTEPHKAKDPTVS

[3] = test system: BJ; test: cells; type: functional, cell-based; settings: Homo sapiens
[4] = target: T2, Sphingosine 1-phosphate receptor 4 (Homo sapiens, UniProt O95977); test: Fluorescence dose response cell-based high throughput screening assay for antagonists of the Sphingosine 1-Phosphate Receptor 4 (S1P4). [Related pubchem assays: 1524 (Confirmation in triplicates.), 1510 (Primary screen.)]; type: functional
T2 sequence (O95977 whole entry): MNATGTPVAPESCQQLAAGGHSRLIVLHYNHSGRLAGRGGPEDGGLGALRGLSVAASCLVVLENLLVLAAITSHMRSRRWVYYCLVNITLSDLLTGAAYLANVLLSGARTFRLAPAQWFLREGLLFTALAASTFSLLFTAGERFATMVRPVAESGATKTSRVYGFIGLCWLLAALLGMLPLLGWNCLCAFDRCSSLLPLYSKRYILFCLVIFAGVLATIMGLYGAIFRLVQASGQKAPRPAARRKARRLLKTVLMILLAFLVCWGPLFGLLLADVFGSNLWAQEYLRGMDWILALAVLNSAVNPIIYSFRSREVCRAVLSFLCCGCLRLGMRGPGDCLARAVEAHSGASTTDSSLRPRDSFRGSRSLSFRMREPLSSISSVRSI

[5] = test system: BJ; test: cytotoxicity toward BJ-TERT-LT-ST fibroblasts, dose response, cell-based, RAS-independent, luminescence (AID 1935); type: functional; settings: Homo sapiens;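 note: BJ fibroblasts immortalized with TERT plus LT and ST oncogenes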
[6] = cytotoxicity toward DRD oncogenic fibroblasts, dose response, cell-based, non-viral oncogenic, luminescence (AID 1934); type: functional; settings: Homo sapiens
[7] = target: Sphingosine 1-phosphate receptor 1 (Homo sapiens, UniProt P21453); type: functional;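 note: Tango beta-arrestin reporter U2OS cells stimulated with S1P near its EC80; inhibitor potency meaning antagonism of receptor activation by the natural agonist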
Sphingosine 1-phosphate receptor 1, sequence (P21453 whole entry): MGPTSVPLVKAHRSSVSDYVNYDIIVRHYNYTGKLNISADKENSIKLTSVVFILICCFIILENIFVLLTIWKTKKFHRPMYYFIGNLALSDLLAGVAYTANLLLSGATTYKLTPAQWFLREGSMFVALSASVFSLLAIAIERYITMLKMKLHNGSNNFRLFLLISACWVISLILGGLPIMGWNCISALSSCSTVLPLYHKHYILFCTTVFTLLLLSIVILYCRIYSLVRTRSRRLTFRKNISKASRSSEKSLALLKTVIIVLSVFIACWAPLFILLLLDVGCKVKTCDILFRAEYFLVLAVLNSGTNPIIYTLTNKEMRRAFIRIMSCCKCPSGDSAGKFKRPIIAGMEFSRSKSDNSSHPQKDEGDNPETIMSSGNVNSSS

[8] = target: Integrin alpha-4 (Homo sapiens, UniProt P13612); test: VLA-4 integrin allosteric ligands, SAR follow-up, cell-based, LIBS antibody binding, flow cytometry (AID 488791); type: functional
Integrin alpha-4, sequence (P13612 whole entry, the tested form may be a part): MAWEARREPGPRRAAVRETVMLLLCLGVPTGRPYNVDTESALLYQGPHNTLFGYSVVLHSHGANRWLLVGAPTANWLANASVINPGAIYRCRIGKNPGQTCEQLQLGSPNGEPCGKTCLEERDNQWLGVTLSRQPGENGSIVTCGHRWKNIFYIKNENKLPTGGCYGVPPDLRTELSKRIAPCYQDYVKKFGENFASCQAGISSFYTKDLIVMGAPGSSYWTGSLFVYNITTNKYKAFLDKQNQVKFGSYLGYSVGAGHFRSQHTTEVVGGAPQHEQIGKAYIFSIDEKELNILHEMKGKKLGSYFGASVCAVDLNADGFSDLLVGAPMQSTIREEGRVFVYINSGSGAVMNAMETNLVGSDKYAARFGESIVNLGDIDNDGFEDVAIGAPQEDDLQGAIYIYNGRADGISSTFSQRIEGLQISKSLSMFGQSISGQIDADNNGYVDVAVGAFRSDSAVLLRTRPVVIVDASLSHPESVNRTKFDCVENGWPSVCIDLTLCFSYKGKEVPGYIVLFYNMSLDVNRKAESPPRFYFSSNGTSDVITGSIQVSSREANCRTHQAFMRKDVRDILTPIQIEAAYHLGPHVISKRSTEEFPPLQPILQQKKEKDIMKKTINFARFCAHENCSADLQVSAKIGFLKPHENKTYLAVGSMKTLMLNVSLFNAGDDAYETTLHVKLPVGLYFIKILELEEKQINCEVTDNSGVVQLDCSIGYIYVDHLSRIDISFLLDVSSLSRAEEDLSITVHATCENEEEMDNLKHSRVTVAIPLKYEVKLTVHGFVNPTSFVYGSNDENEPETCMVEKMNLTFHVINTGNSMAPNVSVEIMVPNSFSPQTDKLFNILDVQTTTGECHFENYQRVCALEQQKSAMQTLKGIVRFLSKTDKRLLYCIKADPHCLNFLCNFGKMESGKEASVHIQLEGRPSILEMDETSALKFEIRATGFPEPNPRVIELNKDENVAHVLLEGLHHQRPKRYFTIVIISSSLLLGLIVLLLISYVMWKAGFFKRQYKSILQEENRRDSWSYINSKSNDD

[9] = test system: CHO; test: cytotoxicity in TLR9-MyD88 CHO cells, dose response, cytotoxicity control for TLR9-MyD88 binding inhibitor project, cell-based, luminescence (AID 588339); type: functional, hamster; settings: Cricetulus griseus;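 note: CHO cells stably coexpressing TLR9 and MyD88 fusions from primary screen; compound exposure lasted 48 hours before viability readout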
[10] = target: Beta Lactamase (Pseudomonas aeruginosa, UniProt Q932Y6); test: beta-lactamase reporter inhibitor potency, dose response, artefact control for TLR9-MyD88 binding inhibitor project, BLA reporter cells, FRET fluorescence (AID 588341); type: cell-based;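 note: cell based assay in CHO-K1 cells stably expressing beta-lactamase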
Beta Lactamase, sequence (Q932Y6 whole entry): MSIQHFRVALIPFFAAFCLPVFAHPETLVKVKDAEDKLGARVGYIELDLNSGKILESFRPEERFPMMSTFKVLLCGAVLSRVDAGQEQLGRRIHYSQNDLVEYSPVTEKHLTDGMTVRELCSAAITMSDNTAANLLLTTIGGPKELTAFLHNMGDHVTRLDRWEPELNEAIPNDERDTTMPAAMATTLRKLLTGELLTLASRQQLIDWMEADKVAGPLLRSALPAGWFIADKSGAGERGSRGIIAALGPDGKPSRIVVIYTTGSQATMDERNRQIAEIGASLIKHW

[11] = microbe, parasite or virus in culture; type: functional; settings: Mycobacterium tuberculosis
[12] = Intein inhibitors as potential Tuberculosis drugs, a cytotoxicity screen. [Related pubchem assays (depositor defined):AID2221, AID2223, AID434968, AID435010, AID449749, AID449750, AID489010]; type: functional
[13] = target: T3, Replicative DNA helicase DnaB (Mycobacterium tuberculosis, UniProt P9WMR3); test: DnaB intein splicing inhibitors, dose response, biochemical, cell-free fluorescence (AID 449749); type: functional
T3 sequence (P9WMR3 whole entry): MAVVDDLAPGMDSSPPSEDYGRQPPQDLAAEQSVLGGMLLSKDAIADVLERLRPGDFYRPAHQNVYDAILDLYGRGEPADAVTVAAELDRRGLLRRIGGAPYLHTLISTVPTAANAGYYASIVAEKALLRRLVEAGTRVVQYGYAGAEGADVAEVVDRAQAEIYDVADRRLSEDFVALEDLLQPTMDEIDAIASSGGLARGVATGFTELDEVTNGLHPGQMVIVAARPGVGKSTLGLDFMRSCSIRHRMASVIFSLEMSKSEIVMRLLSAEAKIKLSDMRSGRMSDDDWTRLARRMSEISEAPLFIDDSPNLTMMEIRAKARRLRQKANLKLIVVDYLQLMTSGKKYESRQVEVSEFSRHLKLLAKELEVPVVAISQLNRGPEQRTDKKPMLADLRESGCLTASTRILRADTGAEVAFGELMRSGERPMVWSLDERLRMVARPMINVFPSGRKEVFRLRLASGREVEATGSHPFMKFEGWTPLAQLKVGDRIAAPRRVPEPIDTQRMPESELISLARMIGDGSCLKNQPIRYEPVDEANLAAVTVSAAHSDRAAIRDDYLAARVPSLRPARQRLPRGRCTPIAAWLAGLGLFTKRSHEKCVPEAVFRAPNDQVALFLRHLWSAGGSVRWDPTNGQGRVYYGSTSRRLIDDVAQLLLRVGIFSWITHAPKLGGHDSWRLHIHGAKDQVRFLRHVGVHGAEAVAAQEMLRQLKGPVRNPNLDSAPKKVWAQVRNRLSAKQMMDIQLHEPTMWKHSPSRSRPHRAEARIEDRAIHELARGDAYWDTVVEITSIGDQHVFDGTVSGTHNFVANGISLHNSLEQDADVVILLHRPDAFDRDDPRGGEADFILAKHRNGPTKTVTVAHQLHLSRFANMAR

[14] = test system: BJ; test: cytotoxicity toward Ras-transformed BJeLR fibroblasts, dose response, cell-based, alamar blue fluorescence, cherrypicked samples (AID 2631); type: functional; settings: Homo sapiens;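 note: confirmatory dose-response assay in RAS-dependent BJ fibroblasts engineered with TERT, LT and ST, with cytotoxicity read by fluorescence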
[15] = target: T4, Protein RecA (Mycobacterium tuberculosis, UniProt P9WHJ3); test: Fluorescence Cell-Free Homogeneous Dose Retest to Identify Inhibitors of RecA-Intein Splicing Activity. [Related pubchem assays (depositor defined):AID2097, AID2223, AID489010, AID492950]; type: functional
T4 sequence (P9WHJ3 whole entry): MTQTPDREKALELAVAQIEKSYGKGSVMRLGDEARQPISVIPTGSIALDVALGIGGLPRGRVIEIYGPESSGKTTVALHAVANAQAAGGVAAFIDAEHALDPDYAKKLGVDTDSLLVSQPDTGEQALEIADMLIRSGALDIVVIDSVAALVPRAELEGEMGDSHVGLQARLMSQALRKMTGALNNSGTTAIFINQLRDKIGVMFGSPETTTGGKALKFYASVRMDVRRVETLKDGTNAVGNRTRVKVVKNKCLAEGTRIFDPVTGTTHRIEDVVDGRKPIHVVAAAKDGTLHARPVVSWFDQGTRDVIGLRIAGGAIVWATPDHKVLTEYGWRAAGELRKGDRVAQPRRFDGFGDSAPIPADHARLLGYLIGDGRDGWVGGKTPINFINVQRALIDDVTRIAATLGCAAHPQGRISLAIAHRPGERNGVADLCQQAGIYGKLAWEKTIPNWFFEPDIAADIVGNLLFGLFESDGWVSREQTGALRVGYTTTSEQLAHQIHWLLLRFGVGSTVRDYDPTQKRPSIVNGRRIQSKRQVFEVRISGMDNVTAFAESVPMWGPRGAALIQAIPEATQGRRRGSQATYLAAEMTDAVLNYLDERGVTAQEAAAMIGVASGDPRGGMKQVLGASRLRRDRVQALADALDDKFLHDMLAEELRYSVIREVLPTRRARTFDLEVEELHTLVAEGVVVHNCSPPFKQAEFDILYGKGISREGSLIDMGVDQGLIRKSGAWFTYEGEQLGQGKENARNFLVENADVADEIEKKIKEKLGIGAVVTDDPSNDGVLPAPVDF

[16] = target: T5, Coagulation factor XII (Homo sapiens, UniProt P00748); test: FXIIa inhibitor potency, concentration-response, biochemical (AID 716); type: functional
T5 sequence (P00748 whole entry): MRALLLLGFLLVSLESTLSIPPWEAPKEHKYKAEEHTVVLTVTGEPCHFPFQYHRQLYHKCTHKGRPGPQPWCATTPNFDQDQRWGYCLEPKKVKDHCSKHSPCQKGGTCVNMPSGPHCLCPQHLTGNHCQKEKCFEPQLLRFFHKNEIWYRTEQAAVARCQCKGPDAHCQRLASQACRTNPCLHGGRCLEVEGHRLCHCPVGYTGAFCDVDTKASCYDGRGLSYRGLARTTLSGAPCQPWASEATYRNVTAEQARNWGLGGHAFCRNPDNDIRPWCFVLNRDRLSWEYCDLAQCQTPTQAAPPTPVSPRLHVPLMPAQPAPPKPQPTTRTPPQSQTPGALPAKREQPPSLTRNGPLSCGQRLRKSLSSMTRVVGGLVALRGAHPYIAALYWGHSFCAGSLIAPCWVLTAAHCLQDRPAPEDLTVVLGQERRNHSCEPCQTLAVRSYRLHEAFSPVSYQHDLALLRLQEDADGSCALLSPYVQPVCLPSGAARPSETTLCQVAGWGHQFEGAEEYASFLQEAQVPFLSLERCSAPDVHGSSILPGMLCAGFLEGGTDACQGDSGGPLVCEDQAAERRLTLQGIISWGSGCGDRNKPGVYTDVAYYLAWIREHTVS

[17] = target: T6, Mu-type opioid receptor (Homo sapiens, UniProt P35372); test: SAR Analysis of Antagonists of the MOR Receptor using an Image-Based Assay - Set 3. [Related pubchem assays (depositor defined):AID1777, AID1785, AID1786, AID1966, AID2133, AID2136, AID2284, AID2285, AID2420]; type: functional
T6 sequence (P35372 whole entry): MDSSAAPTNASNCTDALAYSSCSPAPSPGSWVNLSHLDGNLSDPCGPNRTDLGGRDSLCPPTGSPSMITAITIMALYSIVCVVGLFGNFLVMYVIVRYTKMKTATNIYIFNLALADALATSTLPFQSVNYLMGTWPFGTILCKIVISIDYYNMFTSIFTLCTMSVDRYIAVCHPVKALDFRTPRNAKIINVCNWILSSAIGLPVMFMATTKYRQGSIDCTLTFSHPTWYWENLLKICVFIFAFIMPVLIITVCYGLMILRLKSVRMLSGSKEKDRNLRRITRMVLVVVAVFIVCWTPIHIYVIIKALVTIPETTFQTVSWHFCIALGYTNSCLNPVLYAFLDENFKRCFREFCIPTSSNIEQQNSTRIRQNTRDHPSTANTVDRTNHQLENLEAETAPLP

[18] = target: T7, Delta-type opioid receptor (Homo sapiens, UniProt P41143); test: SAR Analysis of Antagonists of the DOR Receptor using an Image-Based Assay - Set 3. [Related pubchem assays (depositor defined):AID1777, AID1785]; type: functional
T7 sequence (P41143 whole entry): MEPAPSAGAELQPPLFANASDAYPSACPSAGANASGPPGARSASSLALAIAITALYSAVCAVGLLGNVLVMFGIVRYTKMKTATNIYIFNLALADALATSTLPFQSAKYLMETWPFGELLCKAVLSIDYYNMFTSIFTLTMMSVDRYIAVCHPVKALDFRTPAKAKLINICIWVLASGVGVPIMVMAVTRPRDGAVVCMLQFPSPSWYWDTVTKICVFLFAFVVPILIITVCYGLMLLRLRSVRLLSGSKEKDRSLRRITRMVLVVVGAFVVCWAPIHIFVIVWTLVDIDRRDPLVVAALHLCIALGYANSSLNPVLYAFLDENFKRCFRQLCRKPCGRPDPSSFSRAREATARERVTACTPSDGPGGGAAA

[19] = target: T8, Kappa-type opioid receptor (Homo sapiens, UniProt P41145); test: SAR analysis of small molecule antagonists of the kappa opioid receptor via a luminescent beta-arrestin assay - Set 3. [Related pubchem assays (depositor defined):AID1777, AID1778, AID1785, AID1786, AID1966, AID2133, AID2136, AID2285, AID2495]; type: functional
T8 sequence (P41145 whole entry): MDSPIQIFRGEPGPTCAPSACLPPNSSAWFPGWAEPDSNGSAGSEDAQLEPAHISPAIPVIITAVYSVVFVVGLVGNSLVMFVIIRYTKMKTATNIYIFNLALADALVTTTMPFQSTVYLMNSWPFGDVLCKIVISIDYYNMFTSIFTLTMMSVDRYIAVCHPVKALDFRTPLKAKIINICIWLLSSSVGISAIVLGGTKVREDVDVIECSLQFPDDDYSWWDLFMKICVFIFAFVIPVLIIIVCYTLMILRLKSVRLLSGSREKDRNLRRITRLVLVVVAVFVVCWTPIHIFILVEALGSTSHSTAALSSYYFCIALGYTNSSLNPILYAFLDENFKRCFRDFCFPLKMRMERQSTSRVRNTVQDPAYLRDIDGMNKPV

[20] = target: T8, Kappa-type opioid receptor; test: SAR analysis of Antagonists of the Kappa Opioid Receptor (KOR) using an Image-Based Assay - Set 4. [Related pubchem assays (depositor defined):AID1777, AID1785]; type: functional
[21] = target: T8, Kappa-type opioid receptor; test: KOR agonist analogs, arrestin-GFP redistribution, SAR follow-up, imaging, image-based, set 3 (AID 488833); type: functional
[22] = target: T6, Mu-type opioid receptor; test: SAR Analysis of Agonists of the MOR Receptor using an Image-Based Assay - Set 3. [Related pubchem assays (depositor defined):AID1777, AID1785, AID1786, AID1966, AID2133, AID2136, AID2284, AID2285, AID2352]; type: functional
[23] = target: T7, Delta-type opioid receptor; test: SAR Analysis of Agonists of the DOR Receptor using an Image-Based Assay - Set 3. [Related pubchem assays (depositor defined):AID1777, AID1786]; type: functional
[24] = target: T8, Kappa-type opioid receptor; test: SAR analysis of small molecule agonists of the kappa opioid receptor via a luminescent beta-arrestin assay - Set 3. [Related pubchem assays (depositor defined):AID1777, AID1785, AID1786, AID1966, AID2133, AID2136, AID2284, AID2500]; type: functional

CCOC(=O)COc1ccccc1/C=C\[N+](=O)[O-]
EC50 [1]: 3.48 µM (inconclusive) | EC50 [2]: 4.03 µM (active) | EC50 [3]: 26.7 µM (active) | IC50 [4]: 0.962 µM (active) | EC50 [5]: 3.99 µM (inconclusive) | EC50 [6]: 4.76 µM (active) | IC50 [7]: 3.42 µM (active) | EC50 [8]: 0.335 µM (active) | IC50 [9]: 1.92 µM (active) | IC50 [10]: > 49.7 µM (inactive)

COc1cc2c(cc1OC)C(c1cc(Br)ccc1F)N(C(=O)CCl)CC2 (centres undefined)
EC50 [1]: 2.7 µM (inconclusive) | EC50 [2]: 3.09 µM (active) | EC50 [3]: 6.1 µM (active) | CC50 [11]: 5.64 µM (active) | EC50 [5]: 5.02 µM (inconclusive) | EC50 [6]: 5.12 µM (active) | CC50 [12]: 4.2 µM (active) | AC50 [13]: 4.29 µM (active) | EC50 [14]: 1.41 µM (active) | EC50 [15]: 0.8 µM (active)

O=C(c1cccc(F)c1)n1nnc2ccccc21
IC50 [16]: 10.5 µM (active)

O=C(Cn1c(=O)c2cccn2c2cc(Br)cnc21)NCCCN1CCN(c2ccc(Cl)cc2)CC1
IC50 [17]: 5.32 µM (active) | IC50 [18]: > 32 µM (inactive) | IC50 [19]: > 20 µM (inactive) | IC50 [20]: > 32 µM (inactive)

COc1cccc(CSc2nnc(-c3ccccn3)n2Cc2cccs2)c1
EC50 [21]: 12.2 µM (inactive) | EC50 [22]: > 32 µM (inactive) | EC50 [23]: > 32 µM (inactive) | EC50 [24]: 8.72 µM (active)
